{
  "source": "patent US12213966B2",
  "about": "“Methods of reducing plasma level of macrophage migratory inhibitory factor in patients” (priority 2020, dated 2025)",
  "key": {"[1]": {"system": "MIF", "experiment": "Open-label biomarker study in ALS subjects: serum MIF level before and after ibudilast", "format": "in vivo, human", "conditions": "19 ALS subjects who completed the study", "procedure": "This was a multi-center, open-label study with a 6 weeks Screening Phase, 36 weeks Treatment Phase, and a Follow-up Phase 4 weeks after the last dose. Ibudilast was orally administered 50 mg b.i.d. for a total daily dose of 100 mg/day.\nThe objectives of the Study were (i) to measure the impact of ibudilast on [11C]-PBR28 uptake in the motor cortices and brain stem measured by positron emission tomography (PET) imaging at 24 weeks; (ii) to measure the impact of ibudilast on several markers of neuro-inflammation measured by blood biomarkers; and (iii) to evaluate safety and tolerability.\nOut of the 46 patients screened, eleven (11) individuals were screen failures. Total of the 35 enrolled subjects were enrolled. Of the 35 enrolled subjects, 16 subjects (45.7%) terminated the study early, and 19 subjects completed the trial. Of these 16 early study withdrawals, 11 (68.8%) were attributed to AEs and 5 (31.2%) were attributed to consent withdrawn.\nSerum samples for the 19 subjects who completed the study were evaluated for MIF level before treatment and after treatment with ibudilast. • Mean (SD) pre-treatment serum MIF=422,989 (233,440) pg/ml • Mean (SD) post-treatment serum MIF=300,922 (113,843) pg/ml • Mean (SE) change/month=−19, 845 (8934) pg/ml (p=0.03)"}, "[2]": {"conditions": "in vivo; cited from earlier work"}, "[3]": {"system": "migration inhibitory factor (MIF)", "experiment": "Randomized, double-blind, placebo-controlled study in COVID-19 subjects at risk for ARDS: plasma MIF level", "experimental": "The study consisted of a Screening Phase followed by a Treatment and Follow-up Phase. Following the Screening Phase, if the subject met eligibility criteria, subject was administered treatment with ibudilast or placebo. Subjects received ibudilast 100 mg/d (50 mg b.i.d) or placebo every day for 7 days. Upon completion of the 7-day Treatment Phase, subject was followed-up at Day 14 and at Day 28 post baseline.\nThe following screening assessments were performed upon signing the ICF: inclusion/exclusion criteria review, physical examination, assess vital signs and O2 use, clinical status using the NIAID scale, ECG, draw blood for plasma cytokines that include: migration inhibitory factor (MIF), interleukin 1-beta (IL-1β), interleukin 6 (IL-6), tumor necrosis factor (TNF-α), and C-reactive protein (CRP). Pharmacokinetic (PK) samples, complete blood count (CBC), comprehensive metabolic panel (CMP), D-dimer, and coagulation tests were also be drawn.\nOn Day 1 (Baseline) of the Treatment Phase, hospitalized subjects were treated with ibudilast (oral, 50 mg (5 capsules) b.i.d) or placebo for a 7-day period. Subjects underwent study-related procedures including physical examination, vital signs, clinical status assessment using the NIAID scale, O2 use, ECG, blood collection of biomarkers, PK, CBC, CMP, D-dimer and coagulation and information on adverse events and concomitant medications were recorded.\nThe Follow-up Phase consisted of two visits, Day 14 (±3 d) and Day 28 (±3 d). • Day 14 (in-patient): On Day 14, conducted physical examination, clinical status, vital signs and O2 use, ECG, CBC, CMP, D-dimer, and coagulation tests, biomarkers, AE and conmed review, and recorded survival status. • Day 28 (telephone follow-up if patient was no longer hospitalized) On Day 28, clinical status and survival status were recorded."}, "[4]": {"conditions": "COVID-19 subject A, ibudilast oral 50 mg b.i.d. for 7 days"}, "[5]": {"conditions": "COVID-19 subject B, ibudilast oral 50 mg b.i.d. for 7 days"}, "[6]": {"conditions": "COVID-19 subject C, ibudilast oral 50 mg b.i.d. for 7 days"}, "[7]": {"conditions": "COVID-19 subject D, ibudilast oral 50 mg b.i.d. for 7 days"}, "[8]": {"conditions": "mean of 4 COVID-19 subjects, ibudilast oral 50 mg b.i.d. for 7 days"}},
  "data": [
    {"compound": "CC(C)C(=O)c1c(C(C)C)nn2ccccc12", "note": "[ibudilast, 2-methyl-1-(2-(1-methylethyl)pyrazolo(1,5-a)pyridin-3-yl)1-propanone]", "values": [
      {"measurement": "Mean (SD) post-treatment serum MIF", "setting": "[1]; after ibudilast oral 50 mg b.i.d. (100 mg/day), 36 weeks Treatment Phase", "value": "300,922 (113,843) pg/ml"},
      {"measurement": "Mean (SD) pre-treatment serum MIF", "setting": "[1]; before treatment", "value": "422,989 (233,440) pg/ml"},
      {"measurement": "CNS penetration", "setting": "[2]", "value": "good CNS penetration"},
      {"measurement": "Difference of mean change of MIF level between ibudilast-treated group and placebo group", "setting": "[3]; 4 ibudilast vs 4 placebo COVID-19 subjects, p value=0.00552", "value": 17277, "unit": "pg/mL"},
      {"measurement": "Plasma MIF level pre-treatment, Subject A", "setting": "[3]; COVID-19 subject A, ibudilast-treated group, before treatment", "value": 25267, "unit": "pg/mL"},
      {"measurement": "Plasma MIF level difference (post minus pre), Subject A", "setting": "[3]; [4]", "value": -11130, "unit": "pg/mL"},
      {"measurement": "Plasma MIF level post-treatment, Subject A", "setting": "[3]; [4]", "value": 14137, "unit": "pg/mL"},
      {"measurement": "Plasma MIF level pre-treatment, Subject B", "setting": "[3]; COVID-19 subject B, ibudilast-treated group, before treatment", "value": 21130, "unit": "pg/mL"},
      {"measurement": "Plasma MIF level difference (post minus pre), Subject B", "setting": "[3]; [5]", "value": -1497, "unit": "pg/mL"},
      {"measurement": "Plasma MIF level post-treatment, Subject B", "setting": "[3]; [5]", "value": 19633, "unit": "pg/mL"},
      {"measurement": "Plasma MIF level pre-treatment, Subject C", "setting": "[3]; COVID-19 subject C, ibudilast-treated group, before treatment", "value": 17763, "unit": "pg/mL"},
      {"measurement": "Plasma MIF level difference (post minus pre), Subject C", "setting": "[3]; [6]", "value": -12037, "unit": "pg/mL"},
      {"measurement": "Plasma MIF level post-treatment, Subject C", "setting": "[3]; [6]", "value": 5726, "unit": "pg/mL"},
      {"measurement": "Plasma MIF level pre-treatment, Subject D", "setting": "[3]; COVID-19 subject D, ibudilast-treated group, before treatment", "value": 27005, "unit": "pg/mL"},
      {"measurement": "Plasma MIF level difference (post minus pre), Subject D", "setting": "[3]; [7]", "value": -18433, "unit": "pg/mL"},
      {"measurement": "Plasma MIF level post-treatment, Subject D", "setting": "[3]; [7]", "value": 8572, "unit": "pg/mL"},
      {"measurement": "Mean pre-treatment plasma MIF level", "setting": "[3]; mean of 4 COVID-19 subjects, ibudilast-treated group, before treatment", "value": 22791.3, "unit": "pg/mL"},
      {"measurement": "Mean change MIF level", "setting": "[3]; [8]", "value": -110774.3, "unit": "pg/mL"},
      {"measurement": "Mean post-treatment plasma MIF level", "setting": "[3]; [8]", "value": 12017, "unit": "pg/mL"},
      {"measurement": "Mean change MIF level", "setting": "[3]; mean of 4 COVID-19 subjects, ibudilast oral 50 mg b.i.d. for 7 days, listed as Ibudilast", "value": -10774.3, "unit": "pg/mL"}
    ]}
  ]
}
